Key:
Assay in all cases: cells
Type in all cases: cell-based, human
Hep3b = details: read-out: GI50 Hep3b liver
H1299 = details: read-out: GI50 H1299 lung (−p53)
HT29 = details: read-out: GI50 HT29 colorectal
NCI-H460 = details: read-out: GI50 NCI-H460 lung
HCT-15 = details: read-out: GI50 HCT-15 colorectal
MCF7 = details: read-out: GI50 MCF7 breast
SKOV3 = details: read-out: GI50 SKOV3 ovary
SF-268 = details: read-out: GI50 SF-268 CNS
DU-145 = details: read-out: GI50 DU-145 prostate
A549 = details: read-out: GI50 A549 lung (+p53)

| Compound | GI50 (Hep3b) [µM] | GI50 (H1299) [µM] | GI50 (HT29) [µM] | GI50 (NCI-H460) [µM] | GI50 (HCT-15) [µM] | GI50 (MCF7) [µM] | GI50 (SKOV3) [µM] | GI50 (SF-268) [µM] | GI50 (DU-145) [µM] | GI50 (A549) [µM] |
| --- | --- | --- | --- | --- | --- | --- | --- | --- | --- | --- |
| CON(CCCCc1ccc(N(CCCl)CCCl)cc1)C1OC(CO)C(O)C(O)C1O (mixture of isomers) [Compound 10] | 4.4 ± 0.3 | 0.53 ± 0.05 | 0.6 ± 0.9 | 9.5 ± 0.7 | 0.97 ± 0.07 | 9.3 ± 0.7 | 3 ± 0.1 | 3.1 ± 0.1 | 5.8 ± 0.1 | 3.4 |
| CON(CCCCc1ccc(N(CCCl)CCCl)cc1)C1OC(CO)C(O)C(O)C1O (mixture of isomers) [Compound 11] | 2.5 ± 0.1 | 1.3 ± 0.1 | 2.2 ± 0.1 | 10.4 ± 0.8 | 1.7 ± 0.1 | 9 ± 0.7 | 3.1 ± 0.1 | 3.2 ± 0.1 | 6 ± 0.1 | 3.5 ± 0.2 |
| CON(CCCCc1ccc(N(CCCl)CCCl)cc1)C1OC(CO)C(O)C(O)C1O (mixture of isomers) [Compound 12] | 1.7 ± 0.1 | 0.91 ± 0.05 | 1.6 ± 0.2 | 6.6 ± 0.4 | 1.4 ± 0.1 | 6.5 ± 0.1 | 1.9 ± 0.1 | 1.9 ± 0.1 | 4.1 ± 0.2 | 2.4 ± 0.1 |
| CON(CCCCc1ccc(N(CCCl)CCCl)cc1)C1OC(CO)C(O)C(O)C1O (mixture of isomers) [Compound 13] | 2 ± 0.1 | 1.3 ± 0.1 | 2.1 ± 0.2 | 7.9 ± 0.5 | 1.4 ± 0.1 | 7.9 ± 0.8 | 2.5 ± 0.1 | 2.3 ± 0.1 | 4.1 ± 0.1 | 3.1 ± 0.2 |
| CON(CCCCc1ccc(N(CCCl)CCCl)cc1)C1OCC(O)C(O)C1O (mixture of isomers) [Compound 14] | 1.6 ± 0.1 | 0.73 ± 0.03 | 1.5 ± 0.2 | 5 ± 0.4 | 0.9 ± 0.04 | 4.6 ± 0.1 | 2 ± 0.1 | 1.8 ± 0.1 | 3.3 ± 0.1 | 2 ± 0.1 |
| CON(CCCCc1ccc(N(CCCl)CCCl)cc1)C1OCC(O)C(O)C1O (mixture of isomers) [Compound 15] | 1.9 ± 0.1 | 0.84 ± 0.04 | 1.9 ± 0.1 | 6.1 ± 0.5 | 1 ± 0.05 | 5.4 ± 0.1 | 2.2 ± 0.1 | 1.9 ± 0.1 | 3.6 ± 0.1 | 2.3 ± 0.2 |
| CON(CCCCc1ccc(N(CCCl)CCCl)cc1)C1OC(CO)C(OC2OC(CO)C(O)C(O)C2O)C(O)C1O (mixture of isomers) [Compound 17] | 1.2 ± 0.1 | 1.8 ± 0.1 | 1.9 ± 0.1 | 3.8 ± 0.3 | 2.3 ± 0.1 | 1.7 ± 0.1 | 1.8 ± 0.1 | 1.5 ± 0.1 | 1.8 ± 0.1 | 1.6 ± 0.1 |
| CON(CCCCc1ccc(N(CCCl)CCCl)cc1)C1CC(O)C(O)C(C)O1 (mixture of isomers) [Compound 18] | 3.2 ± 0.1 | 1.1 ± 0.1 | 2.1 ± 0.09 | 6.5 ± 0.4 | 1.3 ± 0.1 | 6.3 ± 0.1 | 3 ± 0.1 | 2.8 ± 0.1 | 4.3 ± 0.1 | 2.7 ± 0.2 |
| CON(CCCCc1ccc(N(CCCl)CCCl)cc1)C1OC(C)C(O)C(O)C1O (mixture of isomers) [Compound 20] | 2.6 ± 0.2 | 3.5 ± 0.2 | 6.7 ± 0.3 | 5.9 ± 0.3 | 0.82 ± 0.07 | 3 ± 0.2 | 1.7 ± 0.1 | 1.7 ± 0.1 | 4.1 ± 0.9 | 9.6 ± 0.4 |
| CON(CCCCc1ccc(N(CCCl)CCCl)cc1)C1OC(C)C(O)C(O)C1O (mixture of isomers) [Compound 21] | 3 ± 0.1 | 1.2 ± 0.1 | 2.3 ± 0.1 | 5.4 ± 0.3 | 1.4 ± 0.1 | 0.78 ± 0.09 | 1.8 ± 0.1 | 2 ± 0.1 | 3.8 ± 0.1 | 2.2 ± 0.1 |
| CON(CCCCc1ccc(N(CCCl)CCCl)cc1)C1OC(C)C(OCc2ccccc2)C(OCc2ccccc2)C1OCc1ccccc1 (mixture of isomers) [Compound 22] | 9.5 ± 0.4 | 3.3 ± 0.2 | 7.5 ± 0.3 | 15.8 ± 0.7 | 4.6 ± 0.2 | 4 ± 1 | 7.2 ± 0.4 | 5.7 ± 0.2 | 10 ± 0.4 | 6.4 ± 0.2 |
| CON(CCCCc1ccc(N(CCCl)CCCl)cc1)C1OC(CO)C(O)C(O)C1O (mixture of isomers) [Compound 23] | 3.6 ± 0.3 | 1.3 ± 0.1 | 3.3 ± 0.4 | 9.7 ± 0.8 | 2.4 ± 0.1 | 1.3 ± 0.2 | 3.4 ± 0.5 | 1.9 ± 0.5 | 5.6 ± 0.3 | 4.4 ± 0.4 |
| CON(CCCCc1ccc(N(CCCl)CCCl)cc1)C1OC(CO)C(O)C(O)C1O (mixture of isomers) [Compound 24] | 3.8 ± 0.3 | 1.4 ± 0.1 | 3.7 ± 0.5 | 10.4 ± 0.7 | 2.3 ± 0.3 | 1.3 ± 0.1 | 4.1 ± 0.6 | 2 ± 0.4 | 5.5 ± 0.2 | 4.8 ± 0.4 |
| CON(CCCCc1ccc(N(CCCl)CCCl)cc1)C1CC(O)C(O)C(CO)O1 (mixture of isomers) [Compound 25] | 3.3 ± 0.1 | 1.5 ± 0.1 | 3.5 ± 0.7 | 6.6 ± 0.4 | 1.6 ± 0.1 | 1.04 ± 0.08 | 2.4 ± 0.1 | 2.2 ± 0.1 | 5 ± 0.7 | 3.2 ± 0.2 |
| CON(CCCCc1ccc(N(CCCl)CCCl)cc1)C1OC(C(=O)O)C(O)C(O)C1O (mixture of isomers) [Compound 26] | 14.7 ± 0.8 | 4.9 ± 0.7 | 14.9 ± 0.1 | 34 ± 2 | 8.1 ± 0.6 | 4.5 ± 0.5 | 12.8 ± 0.5 | 8.9 ± 0.4 | 16.3 ± 0.5 | 17.1 ± 0.8 |
| CON(CCCCc1ccc(N(CCCl)CCCl)cc1)C1OC(CO)C(O)C(O)C1NC(C)=O (mixture of isomers) [Compound 27] | 11.8 ± 0.4 | 3.8 ± 0.4 | 12 ± 1 | 42 ± 3 | 19.1 ± 0.8 | 4.4 ± 0.6 | 11 ± 1 | 4.2 ± 0.4 | 16.7 ± 0.7 | 22 ± 1 |
| CON(CCCCc1ccc(N(CCCl)CCCl)cc1)C1OC(CN)C(O)C(O)C1O (mixture of isomers) [Compound 34] | 3.5 ± 0.2 | 1.1 ± 0.1 | 2.5 ± 0.1 | 5 ± 0.4 | 1.3 ± 0.1 | 3.7 ± 0.4 | 2.2 ± 0.1 | 2.2 ± 0.1 | 2.8 ± 0.1 | 3.7 ± 0.2 |
| CON(CCCCc1ccc(N(CCCl)CCCl)cc1)C1OC(CO)C(O)C(O)C1O (mixture of isomers) [Compound 40] | 3.9 ± 0.2 | 0.55 ± 0.05 | 2.9 ± 0.1 | 8 ± 0.7 | 0.88 ± 0.07 | 3.2 ± 0.3 | 2.5 ± 0.1 | 2 ± 0.1 | 4.8 ± 0.1 | 3.3 ± 0.2 |
| CON(CCCCc1ccc(N(CCCl)CCCl)cc1)C1OCC(O)C(O)C1O (mixture of isomers) [Compound 41] | 2.5 ± 0.1 | 0.76 ± 0.05 | 2 ± 0.1 | 5.2 ± 0.4 | 0.79 ± 0.05 | 1 ± 0.2 | 1.8 ± 0.1 | 1.6 ± 0.1 | 3.6 ± 0.1 | 2.3 ± 0.1 |
| CON(CCCCc1ccc(N(CCCl)CCCl)cc1)C1OCC(O)C(O)C1O (mixture of isomers) [Compound 42] | 3 ± 0.1 | 0.88 ± 0.04 | 2.4 ± 0.1 | 5.8 ± 0.1 | 0.95 ± 0.08 | 0.94 ± 0.2 | 1.8 ± 0.1 | 1.2 ± 0.1 | 3.9 ± 0.1 | 2.2 ± 0.1 |
| CON(CCCCc1ccc(N(CCCl)CCCl)cc1)C1OC(CO)C(O)C(O)C1O (mixture of isomers) [Compound 43] | 3.2 ± 0.2 | 1.01 ± 0.07 | 2.6 ± 0.2 | 7.8 ± 0.7 | 1.9 ± 0.2 | 1.9 ± 0.1 | 2.3 ± 0.1 | 1.8 ± 0.1 | 5.1 ± 0.2 | 3.5 ± 0.2 |
| CON(CCCCc1ccc(N(CCCl)CCCl)cc1)C1OC(CO)C(O)C(O)C1O (mixture of isomers) [Compound 44] | 3.7 ± 0.2 | 1.2 ± 0.1 | 3.4 ± 0.2 | 9.8 ± 0.9 | 2.2 ± 0.1 | 2.2 ± 0.2 | 2.9 ± 0.1 | 2 ± 0.1 | 4.9 ± 0.1 | 4.1 ± 0.2 |
| CON(CCCCc1ccc(N(CCCl)CCCl)cc1)C1OC(CO)C(O)C(O)C1NC(C)=O (mixture of isomers) [Compound 45] | 9.8 ± 0.7 | 2.7 ± 0.2 | 8.7 ± 0.7 | 33.3 ± 0.5 | 22 ± 2 | 9 ± 1 | 10.1 ± 0.9 | 3.4 ± 0.2 | 16 ± 1 | 21 ± 2 |
| CON(CCCCc1ccc(N(CCCl)CCCl)cc1)C1OC(C)C(O)C(O)C1O (mixture of isomers) [Compound 51] | 2.6 ± 0.1 | 3.7 ± 0.3 | 2.4 ± 0.1 | 5.3 ± 0.4 | 2 ± 0.1 | 2.2 ± 0.2 | 2 ± 0.1 | 1.9 ± 0.1 | 4.2 ± 0.1 | 2.5 ± 0.1 |
| CON(CCCCc1ccc(N(CCCl)CCCl)cc1)C1OC(C)C(O)C(O)C1O (stereo not drawn) [Compound 37] | 4.4 ± 0.3 | 1.8 ± 0.1 | 2.2 ± 0.2 | 8.5 ± 0.8 | 1.1 ± 0.1 | 5.8 ± 0.1 |  | 2.9 ± 0.1 | 4.9 ± 0.1 | 4.6 ± 0.2 |
